# From US10596151B2, “Methods and pharmaceutical compositions for reducing arterial stiffness with a combination of a therapeutic agent blocking the angiotensin receptor and a therapeutic agent inhibiting the NEP enzyme” (Novartis AG, priority 2015, dated 2020)
# Marks after values point to notes of the source that are not given here.
# What was measured:
# [1] = test system: elderly patients (≥60 years) with essential hypertension; assay: […] study: carotid-femoral aortic pulse wave velocity (SphygmoCor X-CEL); assay type: in vivo, human; details: for Change from baseline to 12 weeks, PWV / Change from baseline to 52 weeks, PWV: pulse wave velocity; for Change from baseline to 12 weeks, PWV: Week 12 endpoint, n = 192 LCZ696, n = 196 olmesartan; for Change from baseline to 52 weeks, PWV: week 52 endpoint, n = 199 both treatments
# Experimental: In the context of the present invention PWV is measured as aortic PWV=aPWV. One system to measure aPWV is the SphygmoCor X-CEL system which measures the carotid-femoral aPWV, as the speed of the arterial pressure waveform as it travels through the descending aorta to the femoral artery, which is detected from simultaneously measured carotid and femoral arterial pulses. The carotid pulse is detected by applanation tonometry using a high-fidelity pressure transducer (Millar Instruments, Houston, Tex.), while the femoral pulse is detected using a partially inflated blood pressure cuff wrapped around the upper thigh. The distance travelled by the pulse wave is captured by making physical measurements on the body surface according to the manufacturer's recommendations. […] [Butlin M, Qasem A, Avolio A P. Estimation of central aortic pressure waveform features derived from the brachial cuff volume displacement waveform. Conf Proc IEEE Eng Med Biol Soc 2012; 2012:2591-4]
# (§1) The study enrolled patient from 5 Dec. 2012 to 8 Apr. 2015.
# The SphygmoCor X-CEL system also measures the carotid-femoral aPWV, as the speed of the arterial pressure waveform as it travels through the descending aorta to the femoral artery, which is detected from simultaneously measured carotid and femoral arterial pulses. The carotid pulse is detected by applanation tonometry using a high-fidelity pressure transducer (Millar Instruments, Houston, Tex.), while the femoral pulse is detected using a partially inflated blood pressure cuff wrapped around the upper thigh. The distance traveled by the pulse wave is captured by making physical measurements on the body surface according to the manufacturer's recommendations.
# [2] = test system: elderly patients (≥60 years) with essential hypertension; assay: […] study: 24-hour ambulatory brachial and central blood pressure (Mobil-O-Graph); assay type: in vivo, human; details: for Change from baseline to 12 weeks, macDBP / Change from baseline to 52 weeks, macDBP: mean ambulatory central diastolic BP; for Change from baseline to 12 weeks, macDBP / Change from baseline to 52 weeks, macDBP / Change from baseline to 12 weeks, macMAP / Change from baseline to 52 weeks, macMAP / Change from baseline to 12 weeks, macPP / Change from baseline to 52 weeks, macPP / Change from baseline to 12 weeks, maMAP / Change from baseline to 52 weeks, maMAP: mean; for Change from baseline to 12 weeks, macMAP / Change from baseline to 52 weeks, macMAP: mean ambulatory central mean arterial pressure; for Change from baseline to 12 weeks, macPP / Change from baseline to 52 weeks, macPP: mean ambulatory central pulse pressure; for Change from baseline to 12 weeks, macSBP / Change from baseline to 52 weeks, macSBP: mean ambulatory central systolic BP; for Change from baseline to 12 weeks, maDBP / Change from baseline to 52 weeks, maDBP: mean ambulatory diastolic BP; for Change from baseline to 12 weeks, maMAP / Change from baseline to 52 weeks, maMAP: mean ambulatory mean arterial pressure; for Change from baseline to 12 weeks, maPP / Change from baseline to 52 weeks, maPP: mean ambulatory pulse pressure; for Change from baseline to 12 weeks, maSBP / Change from baseline to 52 weeks, maSBP: mean ambulatory systolic BP
# Text: as §1
# The 24-hour maCAP and maPWA will be monitored using the oscillometric device, Mobil-0-Graph (IEM, Stolberg, Germany) with integrated ARC solver algorithms (Austrian Institute of Technology, Vienna, Austria). The traditional Mobil-O-Graph ambulatory blood pressure monitoring (ABPM) device has been available for more than a decade and through several product generations.24-27 The actual blood pressure measuring unit was validated according to the British Hypertension Society (BHS) and the European Society of Hypertension (ESH) recommendations.24,26 The method equipped with a GTF to derive aortic pressure waveforms28 is based on brachial readings acquired in the course of the conventional pressure measurement at diastolic level.
# During the signal acquisition procedure, the received raw signals are separated into single waves and checked for their plausibility by means of extreme values and corresponding wavelengths using a cross-correlation approach. Poor waveforms are removed from further processing. After applying the GTF to each single waveform, the procedure is repeated.
# With respect to legal issues, the Mobil-O-Graph maPWA monitor with integrated ARC solver algorithms holds approvals from CE, FDA, and JPAL (amongst others).
# [3] = test system: elderly patients (≥60 years) with essential hypertension; assay: PARAMETER study: safety and tolerability assessments
# Text: The inclusion criteria in the study was designed to enroll patients which met the profile of elderly patients with systolic hypertension and a wide pulse pressure, a characteristic reflective of large artery (aortic) stiffness. […] The study enrolled patient from 5 Dec. 2012 to 8 Apr. 2015.
# This was a 52-week study, involving 50 centers from 12 countries (across Europe, South America, Asia and the United States). […] After 12 weeks, patients with uncontrolled BP (msSBP>140 mmHg and/or mean sitting diastolic blood pressure [msDBP]>90 mmHg) were allowed the use of add-on antihypertensives (amlodipine [2.5-5.0 mg] and then hydrochlorothiazide [6.25-25.0 mg]) as needed, at an interval of 4 weeks up to Week 24.
# Safety and tolerability assessments include regular monitoring and recording of all adverse events (AEs) and concomitant medications or significant non-drug therapies. Evaluations of routine blood chemistries, blood counts with white cell differential and urine analyses, physical examinations, electrocardiograms (ECGs), and monitoring of vital signs will be performed at regular intervals.
# [4] = LCZ696 regimen vs olmesartan regimen, 52 weeks
# [5] = LCZ696 regimen vs olmesartan regimen, 12 weeks, P < 0.001
SMILES,"Change from baseline to 12 weeks, PWV [1]","Change from baseline to 52 weeks, PWV [1]","Change from baseline to 12 weeks, macDBP ([2]; 12 weeks)","Change from baseline to 52 weeks, macDBP ([2]; 52 weeks)","Change from baseline to 12 weeks, macMAP ([2]; 12 weeks)","Change from baseline to 52 weeks, macMAP ([2]; 52 weeks)","Change from baseline to 12 weeks, macPP ([2]; 12 weeks)","Change from baseline to 52 weeks, macPP ([2]; 52 weeks)","Change from baseline to 12 weeks, macSBP ([2]; 12 weeks)","Change from baseline to 52 weeks, macSBP ([2]; 52 weeks)","Change from baseline to 12 weeks, maDBP ([2]; 12 weeks)","Change from baseline to 52 weeks, maDBP ([2]; 52 weeks)","Change from baseline to 12 weeks, maMAP ([2]; 12 weeks)","Change from baseline to 52 weeks, maMAP ([2]; 52 weeks)","Change from baseline to 12 weeks, maPP ([2]; 12 weeks)","Change from baseline to 52 weeks, maPP ([2]; 52 weeks)","Change from baseline to 12 weeks, maSBP ([2]; 12 weeks)","Change from baseline to 52 weeks, maSBP ([2]; 52 weeks)",also measured
"CCCCC(=O)N(Cc1ccc(-c2ccccc2-c2nn[n-]n2)cc1)C(C(=O)[O-])C(C)C.CCCCC(=O)N(Cc1ccc(-c2ccccc2-c2nn[n-]n2)cc1)C(C(=O)[O-])C(C)C.CCOC(=O)C(C)CC(Cc1ccc(-c2ccccc2)cc1)NC(=O)CCC(=O)[O-].CCOC(=O)C(C)CC(Cc1ccc(-c2ccccc2)cc1)NC(=O)CCC(=O)[O-].O.O.O.O.O.[Na+].[Na+].[Na+].[Na+].[Na+].[Na+] [LCZ696, trisodium [3-((1S,3R)-1-biphenyl-4-ylmethyl-3-ethoxycarbonyl-1-butylcarbamoyl) propionate-(S)-3′-methyl-2′-(pentanoyl{2″-(tetrazol-5-ylate)biphenyl-4′-ylmethyl}amino)butyrate]hemipentahydrate]",−0.7,−0.8,−7.5 mmHg,−9.0 mmHg,−9.0 mmHg,−10.33 mmHg,−4.4 mmHg,−4.1 mmHg,−12.1 mmHg,−13.0 mmHg,−7.4 mmHg,−8.8 mmHg,−10.0 mmHg,−11.2 mmHg,−5.8 mmHg,−5.3 mmHg,−13.2 mmHg,−14.1 mmHg,"Between-treatment difference, PWV, 12 weeks ([1]; LCZ696 regimen vs olmesartan regimen, 12 weeks): −0.1 (0.17)*; Between-treatment difference, PWV, 52 weeks [1, 4]: −0.1 (0.18); reduction of PWV in subgroup of patients with high baseline PWV ([1]; ad-hoc analysis, vs olmesartan regimen, both Week 12 and 52): tended to reduce PWV to a greater extent than olmesartan regimen; difference in carotid-femoral PWV between the two regimens ([1]; both Week 12 and 52, LCZ696 vs olmesartan regimen): no significant difference; Between-treatment difference, maDBP, 12 weeks [2, 5]: −2.0 (0.51)* mmHg; Between-treatment difference, maPP, 12 weeks [2, 5]: −2.1 (0.49)* mmHg; Between-treatment difference, maSBP, 12 weeks [2, 5]: −4.1 (0.87)* mmHg; Between-treatment difference, macSBP, 12 weeks [2, 5]: −3.4 (0.84)* mmHg; Between-treatment difference, maDBP, 52 weeks [2, 4]: −0.4 (0.48) mmHg; Between-treatment difference, maPP, 52 weeks [2, 4]: 0.6 (0.50) mmHg; Between-treatment difference, maSBP, 52 weeks [2, 4]: 0.2 (0.82) mmHg; Between-treatment difference, macSBP, 52 weeks [2, 4]: 0.6 (0.79) mmHg; 24-hour ambulatory SBP compared to olmesartan ([2]; after 12-week monotherapy): lowered 24-hour ambulatory SBP compared to olmesartan; percentage of patients who discontinued the study ([3]; 52-week study): 19.7%; percentage of patients who discontinued the study due to an AE ([3]; 52-week study): 6.6%; percentage of patients with AEs ([3]; 52-week study): 57.6%; percentage of patients with SAEs ([3]; 52-week study): 7.0%; tolerability of the regimen ([3]; 52-week study): well tolerated"
"CCCc1nc(C(C)(C)O)c(C(=O)O)n1Cc1ccc(-c2ccccc2-c2nnn[nH]2)cc1 [Olmesartan, reference compound]",−0.6,−0.8,−5.8 mmHg,−9.1 mmHg,−6.75 mmHg,−10.6 mmHg,−2.9 mmHg,−4.6 mmHg,−8.7 mmHg,−13.7 mmHg,−5.5 mmHg,−8.4 mmHg,−7.1 mmHg,−11.1 mmHg,−3.7 mmHg,−5.9 mmHg,−9.1 mmHg,−14.3 mmHg,"percentage of patients who discontinued the study ([3]; human, in vivo, 52 weeks): 18.7%; percentage of patients who discontinued the study due to an AE ([3]; human, in vivo, 52 weeks): 5.3%; percentage of patients with AEs ([3]; human, in vivo, 52 weeks): 53.8%; percentage of patients with SAEs ([3]; human, in vivo, 52 weeks): 5.8%"
